Here are results for nine molecules from article PMC6010545, “Identification of a Novel Polyamine Scaffold With Potent Efflux Pump Inhibition Activity Toward Multi-Drug Resistant Bacterial Pathogens” (Frontiers in Microbiology, 2018).

As usually defined, the viability is the share of living cells, or the viability signal relative to a control. Broadly, the pEC50 is the EC50 on a negative log10 scale, so that one unit is a factor of ten.

One series is described as follows: MTT cytotoxicity assay. It is filed as cell-based. The following applies: human, 25 μg mL^-1, 48 h, read-out: percent recovery (cell viability). As to the method: To assess toxicity of polyamine compounds we used HepG2 human liver carcinoma cells and Hek293T human embryonic kidney epithelial cells. The viability of cell lines was determined using a 3-(4,5-dimethylthiazol-2-yl)-2,5-diphenyltetrazolium bromide (MTT) molecular probe as previously described by our group ([Fleeman et al., 2015]). Briefly, 247, 266, 271 (Hek293T), or 250, 271, 314 (HepG2), alongside control efflux pump inhibitor PaβN, were diluted in 10% DMF from 25 μg mL^-1 to 3 μg mL^-1 using twofold dilutions, before being added to cells in DMEM with 10% FBS and 1% penicillin/streptomycin. Cells were then incubated for 48 h at 37°C with 5% CO2. Following this, viability was assessed by the addition of MTT and measuring the OD570 in a Biotek plate reader. Percent recovery was determined compared to no drug controls.
(Tetrazolium assays rely on reduction of a dye to a coloured formazan, in cell work by metabolically active cells.)

Series [1] deals with P. aeruginosa (1419). The series can be described thus: Bactericidal assessment in combination with tetracycline. The following applies: Pseudomonas aeruginosa, read-out: percent recovery (bacterial viability). Here is the method: Lead agents were screened for bactericidal activity as described by us previously ([Van Horn et al., 2014]; [Fleeman et al., 2015]), with the following modifications. Varying concentrations of tetracycline (0, 12, 25, and 50 μM) were used in combination with the MPC (25 μM) of lead agents 247, 250, 266, 271, and 314 against P. aeruginosa. […] Biofilm experiments were performed similar to those described by us previously ([Fleeman et al., 2015]; [von Salm et al., 2016]), with the following modifications. Polyamine agents 247, 250, 266, 271, and 314 were added at MPC into biofilm containing wells alongside varying concentrations of tetracycline (0, 12, 25, and 50 μM). Cellular viability was determined by serial dilution after a 20-h incubation at 37°C. Values were converted to percent recovery using no treatment controls. All data was generated from three biological replicates and two technical replicates.

Series [2] relates to P. aeruginosa (1419). Kind of series: Bacterial membrane depolarization (DiSC3 dye). The following applies: 25 μg mL^-1. The class given is cell-based. Here is the method: To determine the level of membrane depolarization by polyamine compounds a 3,3′-dipropylthiadicarbocyanine Iodide (DiSC3) fluorescence dye was used. Exponentially growing cultures were prepared as described above, before being harvested by centrifugation. Cells were next washed in buffer a [5 mM Hepes (pH 7.2), 5 mM glucose] and resuspended to an OD600 of 0.2 in the same buffer containing 100 mM KCL and 2 μM DiSC3. Samples were allowed to equilibrate for 15 min at room temperature to ensure uptake and quenching of the dye in bacterial membranes. Cells were aliquoted into 96-well plates and polyamines were added alongside the known efflux inhibitor PAβN (all at 25 μg mL^-1). Nisin (25 μg mL^-1) was used as a positive control to display depolarization effects. A Biotek plate reader was used to monitor fluorescence of wells, with a 622 nm excitation and 670 nm emission. For graphical representation, the maximum relative fluorescence at 2 min was used for comparison of lead agents to controls.

In series [3] the test system is tetracycline-resistant P. aeruginosa isolate 1419. The series can be described thus: Checkerboard potentiation assay with tetracycline. The class given is cell-based, Pseudomonas aeruginosa. The following applies: for EC50: 20 h, inhibitor alone, 25 μg mL^-1 highest concentration tested, read-out: EPI* (inhibitory concentration of efflux pump inhibitor alone). As to the method: Scaffold ranking library samples and individual polyamines were screened using checkerboard inhibitory assays to assess the potentiation of tetracycline and chloramphenicol. The test utilized a 96-well plate microtiter assay where the concentration of the scaffold or individual polyamine was decreased from 25 to 0.8 μg mL^-1 (average molarity of mixture samples 65 to 4 μM) along the rows, and the concentration of tetracycline or chloramphenicol was increased from 0.4 to 100 μM across the columns. […] However, with the known antibiotics, we report EC90 values in μM, which more accurately describes purified compounds. Plates were incubated statically at 37°C for 20 h, and the optical density (OD600) was determined using a Synergy 2 plate reader (BioTek). Potentiation modeling (detailed below) was performed to determine fold change in the 50 and 90% effective concentration of tetracycline or chloramphenicol.
Potentiation was quantified using a mathematical model developed by our group to assess the ability of library samples and individual compounds to effectively enhance the activity of tetracycline or chloramphenicol ([Hoel, 1987]). […] In this way, only libraries and compounds that potentiated tetracycline or chloramphenicol activity were pursued. The model is based on the following equation for modeling the percentage activity of a mixture of two agents with independent action ([Hoel, 1987]):
%Antibiotic & Comp(X1,X2)=%Antibiotic(X1)+%Comp(X2)−%Antibiotic(X1)⋅%Comp(X2)
Here, x1 and x2 are the concentrations of antibiotic (tetracycline or chloramphenicol) and library/compound (Comp) tested, respectively. This equation can be rearranged to model the effective percent activity (EC) of the antibiotic alone, after accounting for compound activity:
Eff%Antibiotic(X1)=%Antibiotic & Compound(X1,X2)−%Compound(X2)/1−%Compound(X2)
Thus, the model-adjusted checkerboards show the antibiotic activity post-potentiation, and from that one can determine the true change in Mic.

The test system of a further series is P. aeruginosa. The series can be described thus: Minimum inhibitory concentrations of antibiotics, P. aeruginosa isolates. It is filed as cell-based. The following applies: Pseudomonas aeruginosa, read-out: minimal inhibitory concentration. As to the method: (§1) The bacterial strains used in this study are multi-drug resistant clinical isolates that have previously been described (Supplementary Table S1; [Fleeman et al., 2015]). Organisms were grown in tryptic soy broth (TSB) for overnight cultures and cation adjusted Mueller Hinton broth (CA-MH II) was used for experimental procedures. All incubations were performed at 37°C. The minimum inhibitory concentrations (MICS) for all antibiotics tested against these organisms are shown in Supplementary Table S1.

In a further series the test system is S. aureus. The series can be described thus: microbe, parasite or virus in culture. It is filed as cell-based. Conditions: Staphylococcus aureus. As to the method:
as §1

A further series relates to A. baumannii 1643. Kind of series: Minimum inhibitory concentrations of antibiotics, A. baumannii isolate. It is filed as cell-based. The following applies: Acinetobacter baumannii; strain 1643; read-out: minimal inhibitory concentration. As to the method:
as §1

The mark [4] stands for this setting: HepG2 human liver carcinoma cells.
[5] abbreviates: EC50 tetracycline without EPI / with EPI.
Setting [6] is: EC90 tetracycline without EPI / with EPI.

pEC50: −log10 of the molar value. ≈ marks a conversion by molar mass, not a printed value. Where “and” joins values, the source holds several entries; their conditions need not be identical. Equal values may be shown once. Read-outs that look alike come from different tables or passages of the source. Residues, ends and D or L forms follow the SMILES beside them. No end group written: not given here. *: point of attachment. βNA = c1ccc2cc(N*)ccc2c1

Take `N=C(N)NCCC[C@H](NC(=O)[C@@H](N)Cc1ccccc1)C(=O)Nc1ccc2ccccc2c1` [PAβN, phenylalanine arginine beta naphthalimide, reference compound] (H-Phe-Arg-βNA): the recovery at 48 h, 25 μg mL^-1 in “MTT cytotoxicity assay” (Hek293T human embryonic kidney epithelial cells, vs solvent only controls) was determined as 63%; in the series “MTT cytotoxicity assay” (setting [4]) it was 68%.
As to `NC(N)=NCCC[C@H](NC(=O)[C@@H](N)Cc1ccccc1)C(=O)Nc1ccc2ccccc2c1` [PAβN, phenylalanine arginine beta naphthalimide, reference compound] (H-Phe-Arg-βNA), the viability at 25 µg/mL in the series on P. aeruginosa (1419) [1] was 76%. Moreover, the “membrane depolarization (DiSC3 fluorescence change)” value in the series on P. aeruginosa (1419) [2] was “strong increase in fluorescence”. Also, the “FP* (fold potentiation of tetracycline EC50)” value in series [3] (setting [5]) was determined as 65.5 fold. In series [3] (EC90 tetracycline no TPL / with TPL at 25 µg ml-1), the “FP (fold potentiation of tetracycline EC90)” value was 8.01 fold. In series [3] (setting [6]), the “FP# (fold potentiation of tetracycline EC90)” value was 8 fold. For the same molecule, the EC50 in series [3] (Pseudomonas aeruginosa) is > 25 µg/mL. Moreover, the EC90 in series [3] (Pseudomonas aeruginosa, Torrey Pines Library alone, 25 µg ml-1 highest tested, read-out: TPL (inhibitory concentration of library alone, EC90)) is > 25 µg/mL.
Regarding `COC(=O)[C@H]1[C@H]2C[C@@H]3c4[nH]c5cc(OC)ccc5c4CCN3C[C@H]2C[C@@H](OC(=O)c2cc(OC)c(OC)c(OC)c2)[C@@H]1OC` [Reserpine, reserpine, reference compound], the “FP* (fold potentiation of tetracycline EC50)” value in series [3] (setting [5]) was found to be 11.2 fold. In series [3] (setting [6]), the “FP# (fold potentiation of tetracycline EC90)” value came to 1 fold. The EC50 in series [3] (Pseudomonas aeruginosa) was > 25 µg/mL.
Consider `C[C@H]1[C@H](NC(=O)/C(=N\OC(C)(C)C(=O)O)c2csc(N)n2)C(=O)N1S(=O)(=O)O` [aztreonam], for which the MIC was 6 µM (≈ 2.61 µg/mL) in the series with P. aeruginosa (strain 1418) and 1 µM (≈ 0.435 µg/mL) in the series on P. aeruginosa (strain 1419).
Consider `O=C(N[C@H](CO)[C@H](O)c1ccc([N+](=O)[O-])cc1)C(Cl)Cl` [chloramphenicol], for which the MIC in the series with S. aureus (USA100, strain 635 (USA100), read-out: minimal inhibitory concentration) is 110 µM (≈ 35.5 µg/mL); in the series with S. aureus (USA300, read-out: minimal inhibitory concentration, strain JE-2 norA knockout (USA300)), 100 µM (≈ 32.3 µg/mL); with S. aureus (USA300, strain JE-2 parental (USA300), read-out: minimal inhibitory concentration), 110 µM (≈ 35.5 µg/mL); in the series on P. aeruginosa (strain 1418), > 619 µM; in the series with P. aeruginosa (strain 1419) it was 150 µM (≈ 48.5 µg/mL); in the series on A. baumannii 1643 it was 85 µM (≈ 27.5 µg/mL). Moreover, the “membrane depolarization (DiSC3 fluorescence change)” value in the series on P. aeruginosa (1419) [2] was “decreased in florescence”.
Consider `NCCC[C@@H](CN[C@H](CN)Cc1ccccc1)NCCc1ccccc1` [compound 314], for which, in the series “MTT cytotoxicity assay” (setting [4]), the recovery at 48 h, 25 μg mL^-1 was 77%. The “FP* (fold potentiation of tetracycline EC50)” value is 5 fold in series [3] (25 µg ml-1 TPI, EC50 tetracycline no TPI / with TPI); 5 fold and 5.0 fold in series [3] (setting [5]). Moreover, the “FP# (fold potentiation of tetracycline EC90)” value in series [3] (25 µg ml-1 TPI, EC90 tetracycline no TPI / with TPI) stood at 7.5 fold; in series [3] (setting [6]), 7.5 fold. In addition, the EC50 in series [3] (Pseudomonas aeruginosa) is > 25 µg/mL. The “TPI (inhibitory concentration of polyamine alone)” value in series [3] (polyamine alone, 25 µg ml-1 highest tested) is > 25 µg/mL.
Regarding `C[C@H]1COc2c(N3CCN(C)CC3)c(F)cc3c(=O)c(C(=O)O)cn1c23` [levofloxacin], the MIC with A. baumannii 1643 worked out at 100 µM (≈ 36.1 µg/mL).
As to `CN(C)[C@@H]1C(O)=C(C(N)=O)C(=O)[C@@]2(O)C(O)=C3C(=O)c4c(O)cccc4[C@@](C)(O)[C@H]3C[C@@H]12` [tetracycline], in the series with P. aeruginosa (1419) [1], the viability at 12 µM is 53%, the viability at 25 µM came to 35% and the viability at 50 µM is 1%. Moreover, the MIC with P. aeruginosa (strain 1418) came to 200 µM (≈ 88.9 µg/mL). Besides, the MIC with P. aeruginosa (strain 1419) stood at 100 µM (≈ 44.4 µg/mL). In series [3] (Pseudomonas aeruginosa, no polyamine, average across replicates, read-out: tetracycline alone EC50), the pEC50 is 4.32. Further, the EC90 in series [3] (Pseudomonas aeruginosa, no library or polyamine, average across replicates, read-out: tetracycline alone EC90) worked out at 82.5 µM.
With “nisin (ITSISLCTPGCKTGALMGCNMKTATCHCSIHVSK; cysteine pairing not given here; also: lantibiotic nisin-A; UniProt P13068 24-57, looked up) [positive control for membrane depolarization]”, in the series on P. aeruginosa (1419) [2], the “membrane depolarization (DiSC3 fluorescence change)” value was “strong increase in fluorescence”.
